Assay results from US20020137929A1, “1 - (3-heterocyclylphenyl) isothiourea, -isourea, -guanidine and -amidine herbicidal agents” (Intellectual Property Department, BASF Aktiengesellschaft, priority 1998, published 2002).

Key:
[1] = system: IPOHE (Morningglory, Ivyleaf); assay: Postemergence herbicidal evaluation; format: in vivo, Ipomoea hederacea; conditions: postemergence
In short: (§1)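 Compound is applied as a foliar spray to seedlings about two weeks old, formulated in equal parts acetone and water with 0.5% TWEEN 20 and delivered at 40 psi to give about 0.0156–0.500 kg per hectare. Injury is rated visually 0–9 after four to five weeks.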

[2] = system: ABUTH (Velvetleaf); assay: Postemergence herbicidal evaluation; format: in vivo, Abutilon theophrasti; conditions: postemergence
In short: as §1

[3] = system: ORYSAT (Rice, Tebonnet); assay: Preemergence herbicidal evaluation; format: in vivo, Oryza sativa, (L.) Tebonnet; conditions: rated 4-5 weeks after treatment, rating scale 0-9
In short: (§2)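 Test compound, dissolved in aqueous acetone, was sprayed over planted soil cups at an equivalent of about 0.0156 to 0.500 kg/ha; seeds had been mixed with potting soil. Greenhouse growth followed, with visual 0-9 scoring of injury at four to five weeks.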

[4] = system: IPOHE (Morningglory, Ivyleaf); assay: Preemergence herbicidal evaluation; format: in vivo, Ipomoea hederacea; conditions: rated 4-5 weeks after treatment, rating scale 0-9
In short: as §2

[5] = system: MOOVA (Monochoria); assay: Preemergence weed control under flooded paddy conditions; format: in vivo, Monochoria vaginalis; conditions: rated 3-4 weeks after treatment
In short: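 Seeds or propagules sown in silt loam kept flooded 1.5-3 cm; compounds in 50/50 acetone/water pipetted into flood water at about 0.0313 to 0.500 kg/ha. Greenhouse; visual 0-9 rating versus untreated control 3-4 weeks after treatment.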

[6] = system: ECHCG (Barnyardgrass); assay: Preemergence herbicidal evaluation; format: in vivo, Echinochloa crus-galli; conditions: rated 4-5 weeks after treatment, rating scale 0-9
In short: as §2

[7] = system: TRZAWR (Wheat, Winter, cv Riband); assay: Preemergence herbicidal evaluation; format: in vivo, Triticum aestivum; conditions: rated 4-5 weeks after treatment, rating scale 0-9
In short: as §2

[8] = system: CHEAL (Lambsquarters, Common); assay: Preemergence herbicidal evaluation; format: in vivo, Chenopodium album; conditions: rated 4-5 weeks after treatment, rating scale 0-9
In short: as §2

[9] = system: TRZAWR (Wheat, Winter, cv Riband); assay: Postemergence herbicidal evaluation; format: in vivo, Triticum aestivum; conditions: postemergence
In short: as §1

[10] = system: SETVI (Foxtail, Green); assay: Preemergence herbicidal evaluation; format: in vivo, Setaria viridis; conditions: rated 4-5 weeks after treatment, rating scale 0-9
In short: as §2

[11] = system: ECHORC (Watergrass (Calif.)); assay: Preemergence weed control under flooded paddy conditions; format: in vivo, Echinochloa oryzoides; conditions: rated 3-4 weeks after treatment
In short: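 Ratings on a 0-9 visual scale cover stand, vigor, malformation, size, chlorosis and overall appearance relative to a control, taken three to four weeks post-treatment. Application was into flood water over freshly sown silt loam at roughly 0.0313 to 0.500 kg/ha.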

COc1cc(CN2C(=O)CSC2=Nc2cc(-n3c(=O)cc(C(F)(F)F)n(C)c3=O)c(F)cc2Cl)cc(OC)c1OC [Compound 140, 3-{4-Chloro-2-fluoro-5-{[3-(3,4,5-trimethoxybenzyl)-4-oxo-2-thiazolidinylidene]amino}phenyl}-1-methyl-6-(trifluoromethyl)-2,4(1H,3H)-pyrimidinedione]
9.0: Herbicidal rating IPOHE ([1]; rate 0.0156 kg/ha) | Herbicidal rating IPOHE ([1]; rate 0.0313 kg/ha) | Herbicidal rating IPOHE ([1]; rate 0.0625 kg/ha) | Herbicidal rating ABUTH ([2]; rate 0.0625 kg/ha) | herbicidal effect rating, MOOVA ([5]; 0.1250 kg/ha) | herbicidal effect rating, MOOVA ([5]; 0.2500 kg/ha) | Preemergence herbicidal rating CHEAL ([8]; rate 0.0625 kg/ha) | Preemergence herbicidal rating CHEAL ([8]; rate 0.1250 kg/ha) | Preemergence herbicidal rating CHEAL ([8]; rate 0.2500 kg/ha)
7.0: herbicidal effect rating, MOOVA ([5]; 0.0625 kg/ha) | herbicidal effect rating, ECHORC ([11]; 0.1250 kg/ha) | herbicidal effect rating, ECHORC ([11]; 0.2500 kg/ha)
3.5: Herbicidal rating TRZAWR ([9]; rate 0.0313 kg/ha)
2.5: Herbicidal rating TRZAWR ([9]; rate 0.0156 kg/ha)
0.0: Preemergence herbicidal rating ORYSAT ([3]; rate 0.0625 kg/ha) | Preemergence herbicidal rating ORYSAT ([3]; rate 0.1250 kg/ha) | Preemergence herbicidal rating ORYSAT ([3]; rate 0.2500 kg/ha) | Preemergence herbicidal rating IPOHE ([4]; rate 0.0625 kg/ha) | Preemergence herbicidal rating ECHCG ([6]; rate 0.0625 kg/ha) | Preemergence herbicidal rating ECHCG ([6]; rate 0.1250 kg/ha) | Preemergence herbicidal rating ECHCG ([6]; rate 0.2500 kg/ha) | Preemergence herbicidal rating TRZAWR ([7]; rate 0.0625 kg/ha) | Preemergence herbicidal rating TRZAWR ([7]; rate 0.1250 kg/ha) | Preemergence herbicidal rating TRZAWR ([7]; rate 0.2500 kg/ha) | Preemergence herbicidal rating SETVI ([10]; rate 0.0625 kg/ha) | Preemergence herbicidal rating SETVI ([10]; rate 0.1250 kg/ha) | Preemergence herbicidal rating SETVI ([10]; rate 0.2500 kg/ha)
4.0: Herbicidal rating ABUTH ([2]; rate 0.0156 kg/ha) | Herbicidal rating ABUTH ([2]; rate 0.0313 kg/ha) | herbicidal effect rating, MOOVA ([5]; 0.0313 kg/ha) | Herbicidal rating TRZAWR ([9]; rate 0.0625 kg/ha)
3.0: Preemergence herbicidal rating IPOHE ([4]; rate 0.1250 kg/ha) | Preemergence herbicidal rating IPOHE ([4]; rate 0.2500 kg/ha)
5.0: herbicidal effect rating, ECHORC ([11]; 0.0313 kg/ha) | herbicidal effect rating, ECHORC ([11]; 0.0625 kg/ha)

Cn1c(C(F)(F)F)cc(=O)n(-c2cc(N=C3SCC(=O)N3Cc3ccc(C(F)(F)F)cc3)c(Cl)cc2F)c1=O [Compound 141, 3-{4-Chloro-2-fluoro-5-{{3-[p-(trifluoromethyl)benzyl]-4-oxo-2-thiazolidinylidene}-amino}phenyl}-1-methyl-6-(trifluoromethyl)-2,4 (1H, 3H)-pyrimidinedione]
3.0: Preemergence herbicidal rating IPOHE ([4]; rate 0.2500 kg/ha) | Preemergence herbicidal rating CHEAL ([8]; rate 0.0156 kg/ha) | Herbicidal rating TRZAWR ([9]; rate 0.0156 kg/ha)
4.0: Preemergence herbicidal rating SETVI ([10]; rate 0.2500 kg/ha)
7.0: Herbicidal rating ABUTH ([2]; rate 0.0156 kg/ha) | Herbicidal rating ABUTH ([2]; rate 0.0313 kg/ha) | herbicidal effect rating, MOOVA ([5]; 0.0313 kg/ha) | herbicidal effect rating, ECHORC ([11]; 0.1250 kg/ha) | herbicidal effect rating, ECHORC ([11]; 0.2500 kg/ha)
5.0: herbicidal effect rating, ECHORC ([11]; 0.0313 kg/ha) | herbicidal effect rating, ECHORC ([11]; 0.0625 kg/ha)
2.0: Preemergence herbicidal rating ECHCG ([6]; rate 0.2500 kg/ha)
0.0: Preemergence herbicidal rating ORYSAT ([3]; rate 0.0156 kg/ha) | Preemergence herbicidal rating ORYSAT ([3]; rate 0.0313 kg/ha) | Preemergence herbicidal rating ORYSAT ([3]; rate 0.0625 kg/ha) | Preemergence herbicidal rating ORYSAT ([3]; rate 0.1250 kg/ha) | Preemergence herbicidal rating ORYSAT ([3]; rate 0.2500 kg/ha) | Preemergence herbicidal rating IPOHE ([4]; rate 0.0156 kg/ha) | Preemergence herbicidal rating IPOHE ([4]; rate 0.0313 kg/ha) | Preemergence herbicidal rating IPOHE ([4]; rate 0.0625 kg/ha) | Preemergence herbicidal rating IPOHE ([4]; rate 0.1250 kg/ha) | Preemergence herbicidal rating ECHCG ([6]; rate 0.0156 kg/ha) | Preemergence herbicidal rating ECHCG ([6]; rate 0.0313 kg/ha) | Preemergence herbicidal rating ECHCG ([6]; rate 0.0625 kg/ha) | Preemergence herbicidal rating ECHCG ([6]; rate 0.1250 kg/ha) | Preemergence herbicidal rating TRZAWR ([7]; rate 0.0156 kg/ha) | Preemergence herbicidal rating TRZAWR ([7]; rate 0.0313 kg/ha) | Preemergence herbicidal rating TRZAWR ([7]; rate 0.0625 kg/ha) | Preemergence herbicidal rating TRZAWR ([7]; rate 0.1250 kg/ha) | Preemergence herbicidal rating TRZAWR ([7]; rate 0.2500 kg/ha) | Preemergence herbicidal rating SETVI ([10]; rate 0.0156 kg/ha) | Preemergence herbicidal rating SETVI ([10]; rate 0.0313 kg/ha) | Preemergence herbicidal rating SETVI ([10]; rate 0.0625 kg/ha) | Preemergence herbicidal rating SETVI ([10]; rate 0.1250 kg/ha)
3.5: Herbicidal rating TRZAWR ([9]; rate 0.0313 kg/ha)
4.5: Herbicidal rating TRZAWR ([9]; rate 0.0625 kg/ha)
9.0: Herbicidal rating IPOHE ([1]; rate 0.0156 kg/ha) | Herbicidal rating IPOHE ([1]; rate 0.0313 kg/ha) | Herbicidal rating IPOHE ([1]; rate 0.0625 kg/ha) | herbicidal effect rating, MOOVA ([5]; 0.2500 kg/ha) | Preemergence herbicidal rating CHEAL ([8]; rate 0.0313 kg/ha) | Preemergence herbicidal rating CHEAL ([8]; rate 0.0625 kg/ha) | Preemergence herbicidal rating CHEAL ([8]; rate 0.1250 kg/ha) | Preemergence herbicidal rating CHEAL ([8]; rate 0.2500 kg/ha)
8.0: Herbicidal rating ABUTH ([2]; rate 0.0625 kg/ha) | herbicidal effect rating, MOOVA ([5]; 0.0625 kg/ha) | herbicidal effect rating, MOOVA ([5]; 0.1250 kg/ha)
